According to PubChem BioAssay (NCI):
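1) Cells in 96-well plates. 2) Compound, 48 h, 5 concentrations. 3) Linear interpolation between surrounding doses. 4) Unreached endpoint = highest concentration. Abbreviation: GI50, concentration required for 50% inhibition of growth. Definition used: TGI = concentration required for complete inhibition of growth.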

Assays:
Experiment in all cases: NCI-60 cell line screen, 48 h
[1] = tested on: DU-145 prostate
[2] = tested on: PC-3 prostate
[3] = tested on: SR leukemia
[4] = tested on: HOP-62 NSCLC
[5] = tested on: HOP-92 NSCLC
[6] = tested on: RXF 393 renal
[7] = tested on: HT29 colon
[8] = tested on: SF-268 CNS
[9] = tested on: RPMI-8226 leukemia
[10] = tested on: SW-620 colon
[11] = tested on: MOLT-4 leukemia

Row | Compound | TGI [1] | TGI [2] | TGI [3] | TGI [4] | TGI [5] | TGI [6] | TGI [7] | TGI [8] | TGI [9] | TGI [10] | TGI [11] | GI50 [3]
1 | O=C1O[C@H]2[C@@H]3OC(=O)c4cc(O)c(O)c(O)c4-c4c(cc(O)c(O)c4O)C(=O)OC[C@H]2O[C@@H](OC(=O)c2cc(O)c(O)c(O)c2)[C@@H]3OC(=O)c2cc(O)c(O)c3c2[C@@H]2C1=CC(=O)C(O)(O)C2(O)O3 (stereo not given in full) | > 100 µM | > 100 µM | > 100 µM | > 100 µM | > 100 µM | > 100 µM | 34.2 µM | > 100 µM | > 100 µM | 38.5 µM | 92 µM | 
2 | CCCCCCCCCCCCP(=O)(O)OCC(N)C(=O)O (stereo not given) | > 100 µM | 36.9 µM | > 100 µM | 31.6 µM | 71.6 µM | > 100 µM | > 100 µM | > 100 µM | 91.9 µM | > 100 µM | 61.7 µM | 
3 | COC(=O)[C@@H]1C[C@]2(CC=C(C)C)c3ccccc3N(S(=O)(=O)c3ccccc3)[C@@H]2N1C(=O)OC | > 100 µM | > 100 µM | 99.3 µM | > 100 µM | > 100 µM | 43.9 µM | > 100 µM | 99.3 µM | 42.6 µM | > 100 µM | > 100 µM | 
4 | CC(=O)Nc1ccc(-c2nc3ccccc3s2)cc1O | > 100 µM | > 100 µM | > 100 µM | > 100 µM | > 100 µM | > 100 µM | > 100 µM | > 100 µM | > 100 µM | > 100 µM | 85.6 µM | 
5 | O=C(/C(=C/c1cccs1)c1ccccc1)c1ccccc1 | > 100 µM | > 100 µM | > 100 µM | 58.2 µM | > 100 µM | 18.8 µM | > 100 µM | > 100 µM | > 100 µM | > 100 µM | > 100 µM | 
6 | CC1Cc2cc(O)ccc2C2[C@@H]1C1CC[C@H](O)[C@@]1(C)C[C@@H]2O[N+](=O)[O-] (stereo not given in full) | 76.3 µM | > 100 µM | > 56.8 µM | 44.4 µM | 97.6 µM | 29.3 µM | 31.1 µM | > 93.1 µM | 50.2 µM | > 100 µM | > 100 µM | 
7 | CC[C@]12C=CCN3CCC4(c5cc([C@@]6(C(=O)OC)CC7CN(CCc8c6[nH]c6ccccc86)C[C@@H]6CCC[C@H]76)c(OC)cc5N(C)C4[C@](O)(C(=O)OC)C1OC(C)=O)C32 (stereo not given in full) | 0.0749 µM | > 10 µM | 0.788 µM | 1.31 µM | > 10 µM | 0.554 µM | > 3.12 µM | 1.6 µM | > 7.96 µM | > 4.07 µM | 6.02 µM | 
8 | CCOP(C)(=O)C(Nc1ccc(F)cc1)c1ccc(F)cc1 (stereo not given) | > 100 µM | > 100 µM | > 100 µM | > 100 µM | > 100 µM | > 100 µM | > 100 µM | > 100 µM | > 100 µM | > 100 µM | > 100 µM | 
9 | O=C1C[C@H]2[C@H](c3ccc(Br)cc3)[C@H]3C(=O)c4ccccc4NC(=O)[C@@H]3[C@@]2(O)c2ccccc2N1 | > 100 µM | > 100 µM | 90.8 µM | 49.7 µM | 4.96 µM | 26 µM | 30.8 µM | > 100 µM | 62.4 µM | > 100 µM | 25 µM | 
10 | OCSc1nn(CO)c(=S)s1 | 57.6 µM | 59.6 µM | 11.9 µM | 45.2 µM | 41.7 µM | 34.3 µM | 75.3 µM | 50.5 µM | 70.6 µM | > 100 µM | 51.6 µM | 
11 | O=C(O)c1cc(Sc2ccc([N+](=O)[O-])c(C(=O)O)c2)ccc1[N+](=O)[O-] | > 100 µM | > 100 µM | > 100 µM | > 100 µM | > 100 µM | > 100 µM | > 100 µM | > 100 µM | > 100 µM | > 100 µM | > 100 µM | > 100 µM
12 | CCOP(=O)(OCC)/C(C#N)=C/c1c(C)[nH]c2ccccc12 | > 100 µM | > 100 µM | > 100 µM | > 100 µM | > 100 µM | > 100 µM | > 100 µM | > 100 µM | > 100 µM | > 100 µM | > 100 µM | 
13 | COC1(C)C=NCC(C)(C)NC(=O)C(C)(OC)C=NCC(C)(C)NC1=O (stereo not given) | > 10 µM | > 10 µM | > 10 µM | > 10 µM | > 10 µM | > 10 µM | > 10 µM | > 10 µM | > 10 µM | > 10 µM | > 10 µM | 
14 | CC1(C)O[C@@H]2[C@@H]3OC(=O)C[C@@H]3[C@@H](COCc3ccccc3)[C@@H]2O1 | > 100 µM | > 100 µM | > 100 µM | > 100 µM | > 100 µM | > 100 µM | > 100 µM | > 100 µM | > 100 µM | > 100 µM | > 100 µM | 
